These results are taken from patent publication US11331302B2, “Transmucosal delivery of tocotrienol” (INVICTUS BIOTECHNOLOGY PTY LTD., priority 2012, dated 2022).

A short description of series [1]: Plasma tocotrienol levels after sublingual tablets. It is filed as in vivo, human. Particulars: 4×10 mg tablets sublingually, 2 subjects. How it is done:
A 220 mg sublingual tablet formulation was prepared containing a dose of 10 mg tocotrienol comprised of the actives: delta-tocotrienol 9 mg, gamma tocotrienol 1 mg; and the following excipients: dextrose, mannitol, marine gelatin, 1-leucine, 1-arginine, pre-gel starch, PEG-200, propylene glycol, talc, silica dioxide, magnesium stearate, carotenoids.
A test was carried out on 2 subjects who dissolved 4×10 mg tablets sublingually.

Series [2] addresses T1, alpha-tocopherol transport protein (a-TTP) (Rattus norvegicus, UniProt P41034).
T1 sequence (P41034 1-278): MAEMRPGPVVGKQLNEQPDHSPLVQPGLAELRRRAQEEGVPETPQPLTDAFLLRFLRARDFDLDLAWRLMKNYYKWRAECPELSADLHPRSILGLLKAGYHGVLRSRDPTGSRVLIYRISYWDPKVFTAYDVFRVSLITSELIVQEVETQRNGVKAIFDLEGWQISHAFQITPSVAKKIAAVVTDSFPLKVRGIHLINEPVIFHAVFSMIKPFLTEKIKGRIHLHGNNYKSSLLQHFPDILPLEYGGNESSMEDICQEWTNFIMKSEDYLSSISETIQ
Particulars: alpha-tocopherol = 100%; cited from earlier work.

For series [3] the following is noted: animal study, estimated; cited from earlier work.
The conditions of series [4]: in vivo.
Procedure: FIG. 9: Appearance of blood plasma concentrations using gel and tablet sublingual formulations of a 40 mg dose of tocotrienols. Delta tocotrienol (delta-T3) and gamma tocotrienol (gamma-T3) levels were measured in plasma at time points up to 180 minutes from administration of the gel or tablet (tab) formulation.
A test was carried out in 2 subjects who administered 40 mg tocotrienols in 2 ml of gel sublingually. Blood samples were collected from a forearm venous catheter before administration and at 15, 60, and 180 minutes after administration.
For series [5] the following is noted: humans; same dose of tocotrienol preparations; cited from earlier work.

For `CC(C)=CCC/C(C)=C/CC/C(C)=C/CC[C@]1(C)CCc2cc(O)c(C)c(C)c2O1` [gamma tocotrienol], the plasma level in series [1] (20 minute point) is 0.8 µM; in series [1] (1 h), 0.4 µM; in series [1] (2 h) it was 0.19 µM; in series [1] (3 h) it was 0.07 µM. For the same molecule, the “relative affinity towards a-TTP” value in series [2] was 9%.

Turning to tocopherol, in series [3], the oral bioavailability is reported as 36%.

As to `Cc1c(C)c2c(c(C)c1O)CC[C@@](C)(CCC[C@H](C)CCC[C@H](C)CCCC(C)C)O2` [alpha-tocopherol], in series [2], the “relative affinity towards a-TTP” value is given as 100%.

In the case of `Cc1cc(O)cc2c1O[C@](C)(CCC[C@H](C)CCC[C@H](C)CCCC(C)C)CC2` [delta-tocopherol], in series [2], the “relative affinity towards a-TTP” value is 2%.

Regarding `CC(C)=CCC/C(C)=C/CC/C(C)=C/CC[C@]1(C)CCc2cc(O)cc(C)c2O1` [delta tocotrienol], the “ratio of delta to gamma tocotrienol levels in plasma” value in series [4] was 9:1.

As to alpha-tocotrienol, in series [2], the “relative affinity towards a-TTP” value was 12%. In series [5], the “plasma concentration, fold higher than that of gamma-tocotrienol” value is on record as 2 fold and the “plasma concentration, times higher than delta-tocotrienol” value is roughly 10 times.
